US8614221B2, “Inhibitors of Akt activity” (Merck Sharp & Dohme Corp., priority 2009, dated 2013)

Experiments:
Akt2 kinase = target: T1, Akt2 kinase (Homo sapiens, UniProt P31751); experiment: Akt kinase assay (HTRF, GSK-derived biotinylated peptide substrate); assay type: biochemical
T1 construct: a middle T tag was added to the 5′ end of the full length Akt2 using the PCR primer; middle T tag (EYMPME) (N); biotin tag (from pS2neo vector); made in house; host or cells: Drosophila S2 cells
Experimental: (§1) Activated Akt isoforms and pleckstrin homology domain deletion constructs were assayed utilizing a GSK-derived biotinylated peptide substrate. The extent of peptide phosphorylation was determined by Homogeneous Time Resolved Fluorescence (HTRF) using a lanthanide chelate(Lance)-coupled monoclonal antibody specific for the phosphopeptide in combination with a streptavidin-linked allophycocyanin (SA-APC) fluorophore which will bind to the biotin moiety on the peptide. When the Lance and APC are in proximity (i.e. bound to the same phosphopeptide molecule), a non-radiative energy transfer takes place from the Lance to the APC, followed by emission of light from APC at 665 nm.
(§2) Materials required for the assay:
(§3) A. Activated Akt isozyme or pleckstrin homology domain deleted construct
(§4) B. Akt peptide substrate: GSK3α (S21) Peptide #3928 biotin-GGRARTSSFAEPG (SEQ. ID. NO. 15), Macromolecular Resources.
(§5) C. Lance labeled anti-phospho GSK3α monoclonal antibody (Cell Signaling Technology, clone #27).
(§6) D. SA-APC (Prozyme catalog no. MSS lot #896067).
(§7) E. Microfluor®B U Bottom Microtiter Plates (Dynex Technologies, Catalog no. 7205).
(§8) F. Discovery® HTRF Microplate Analyzer, Packard Instrument Company.
(§9) G. 100× Protease Inhibitor Cocktail (PIC): 1 mg/mL benzamidine, 0.5 mg/mL pepstatin, 0.5 mg/mL leupeptin, 0.5 mg/mL aprotinin.
(§10) H. 10× Assay Buffer: 500 mM HEPES, pH 7.5, 1% PEG, […], 1 mM EGTA, 1% BSA, 20 mM θ-Glycerol phosphate.
(§11) I. Quench Buffer: 50 mM HEPES pH 7.3, 16.6 mM EDTA, 0.1% BSA, 0.1% Triton X-100, 0.17 nM Lance labeled monoclonal antibody clone #27, 0.0067 mg/mL SA-APC
(§12) J. ATP/MgCl2 working solution: 1× Assay buffer, 1 mM DTT, 1×PIC, 125 mM KCl, 5% Glycerol, 25 mM MgCl2, 375 μM ATP
(§13) K. Enzyme working solution: 1× Assay buffer, 1 mM DTT, 1×PIC, 5% Glycerol, active Akt. The final enzyme concentrations were selected so that the assay was in a linear response range.
(§14) L. Peptide working solution: 1× Assay buffer, 1 mM DTT, 1×PIC, 5% Glycerol, 2 μM GSK3 biotinylated peptide #3928
(§15) The reaction is assembled by adding 16 μL of the ATP/MgCl2 working solution to the appropriate wells of a 96-well microliter plate. Inhibitor or vehicle (1.0 μL) is added followed by 10 μL of peptide working solution. The reaction is started by adding 13 μL of the enzyme working solution and mixing. The reaction is allowed to proceed for 50 min and then stopped by the addition of 60 μL HTRF quench buffer. The stopped reactions were incubated at room temperature for at least 30 min and then read on the Discovery instrument.

Akt1 kinase = target: T2, Akt1 kinase (Homo sapiens, UniProt P31749); experiment: as above; assay type: biochemical
T2 construct: a middle T tag was added to the 5′ end of the full length Akt1 gene; middle T tag (EYMPME) (N); biotin tag (from pS2neo vector); made in house; host or cells: Drosophila S2 cells
T2 sequence (P31749 whole entry): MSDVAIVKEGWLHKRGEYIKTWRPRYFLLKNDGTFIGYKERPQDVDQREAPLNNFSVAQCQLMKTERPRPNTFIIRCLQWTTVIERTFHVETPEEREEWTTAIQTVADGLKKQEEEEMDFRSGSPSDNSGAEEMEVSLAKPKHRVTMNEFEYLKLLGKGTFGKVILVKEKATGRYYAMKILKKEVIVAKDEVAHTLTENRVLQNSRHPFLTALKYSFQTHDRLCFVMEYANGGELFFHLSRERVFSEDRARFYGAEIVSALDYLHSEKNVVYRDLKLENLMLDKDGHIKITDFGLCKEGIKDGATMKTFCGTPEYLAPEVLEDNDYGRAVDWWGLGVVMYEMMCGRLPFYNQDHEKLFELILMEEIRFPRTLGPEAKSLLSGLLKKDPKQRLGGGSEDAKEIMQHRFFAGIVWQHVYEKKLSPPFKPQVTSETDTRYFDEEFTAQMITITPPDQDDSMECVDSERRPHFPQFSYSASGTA
Experimental: as §1, §2, §3, §4, §5, §6, §7, §8, §9, §10, §11, §12, §13, §14, §15

T1 sequence (P31751 whole entry): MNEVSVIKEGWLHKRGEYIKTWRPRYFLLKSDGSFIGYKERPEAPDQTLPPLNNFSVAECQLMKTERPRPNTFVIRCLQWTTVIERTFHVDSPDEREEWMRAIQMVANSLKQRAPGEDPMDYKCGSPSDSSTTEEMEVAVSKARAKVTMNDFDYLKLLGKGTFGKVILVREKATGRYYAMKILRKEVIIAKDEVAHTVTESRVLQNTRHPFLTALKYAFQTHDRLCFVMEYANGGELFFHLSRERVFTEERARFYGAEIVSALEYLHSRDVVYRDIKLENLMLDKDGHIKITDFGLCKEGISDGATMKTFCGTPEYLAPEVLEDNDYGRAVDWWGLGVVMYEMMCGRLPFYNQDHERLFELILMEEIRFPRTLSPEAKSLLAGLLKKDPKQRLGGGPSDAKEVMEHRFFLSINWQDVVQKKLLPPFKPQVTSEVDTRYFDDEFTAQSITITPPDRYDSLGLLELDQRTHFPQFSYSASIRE

Row | IC50 (Akt2 kinase) [nM] | IC50 (Akt1 kinase) [nM] | SMILES
1 | 33.8 | 4.6 | c1ccc(-c2cc3cnc4nc(N5CCOCC5)nn4c3nc2-c2ccc(CN3CCC(c4nnc(-c5ccccn5)[nH]4)CC3)cc2)cc1 [EXAMPLE 12-3, 2-morpholin-4-yl-7-phenyl-8-(4-{[4-(5-pyridin-2-yl-4H-1,2,4-triazol-3-yl)piperidin-1-yl]methyl}phenyl)pyrido[3,2-e][1,2,4]triazolo[1,5-a]pyrimidine]
2 | 29 | 4 | Cc1cc2ncc3cc(-c4ccccc4)c(-c4ccc([C@]5(N)C[C@@](O)(C6CC6)C5)cc4)nc3n2n1 [EXAMPLE 1-9, trans-3-amino-1-cyclopropyl-3-[4-(2-methyl-7-phenylpyrazolo[1,5-a]pyrido[3,2-e]pyrimidin-8-yl)phenyl]cyclobutanol]
3 | 33.8 | 32.7 | NC1(c2ccc(-c3nc4c(ccn5c(C6CC6)nnc45)cc3-c3ccccc3)cc2)CCC1 [EXAMPLE 9-2, 1-{4-[3-cyclopropyl-8-phenyl[1,2,4]triazolo[4,3-h]-1,7-naphthyridin-9-yl)phenyl}cyclobutanamine]
4 | 578 | 37.2 | C=CCNC(=O)C1CCN(Cc2ccc(-c3nc4c(cnc5cc(C)nn54)cc3-c3ccccc3)cc2)CC1 [EXAMPLE 15-3, 2-methyl-7-phenyl-8-(4-{[4-(prop-2-en-1-ylcarbamoyl)piperidin-1-yl]methyl}phenyl)pyrazolo[1,5-a]pyrido[3,2-e]pyrimidine]
